These compounds were tested on Phakopsora pachyrhizi (assay: Phakopsora pachyrhizi test in soybean, preventive spray). Conditions: preventive spray on soybean plants, inoculated one day after treatment, greenhouse 25° C., 90% relative humidity, read-out: control (efficacy, disease severity rating) compared to the untreated check.
Format: in vivo
Protocol: Example 8: Phakopsora pachyrhizi Test in Soybean
Compounds were dissolved in 2% DMSO/Acetone & then mixed with water to the calibrated spray volume of 50 mL and poured into the spray bottles for further applications.
To test the preventive activity of compounds, healthy young soybean plants raised in the greenhouse were sprayed with active compound preparation at the stated application rates inside the spray cabinets using hallowcone nozzles. One day after treatment, the plants were inoculated with spore suspension containing 2.1×10^6 Phakopsora pachyrhizi inoculum. The inoculated plants were then kept in greenhouse chamber at 25° C. temperature & 90% relative humidity for disease expression.
A visual assessment of compound's performance was carried out by rating the disease severity (0-100% scale) on treated plants on 3, 7, 10 & 15 days after application. Efficacy (% control) of the compounds was calculated by comparing the disease rating in the treatment with the one of the untreated control. The sprayed plants were also assessed for compound's plant compatibility by recording symptoms like necrosis, chlorosis & stunting.

| SMILES | pest or weed control at 500 ppm |
| --- | --- |
| CS(=O)(=NC(=O)c1ccc(-c2noc(C(F)(F)F)n2)cc1)c1ccc(Cl)cc1 (centres unmarked) [Compound 1, N-((4-chlorophenyl)(methyl)(oxo)-λ^6-sulfanylidene)-4-(5-(trifluoromethyl)-1,2,4-oxadiazol-3-yl)benzamide] | > 90% |
| CS(=O)(=NC(=O)c1ccc(-c2noc(C(F)(F)F)n2)cc1)c1ccccn1 (centres unmarked) [Compound 2, N-(methyl(oxo)(pyridin-2-yl)-λ^6-sulfanylidene)-4-(5-(trifluoromethyl)-1,2,4-oxadiazol-3-yl)benzamide] | > 90% |
| CS(=O)(=NC(=O)c1ccc(-c2noc(C(F)(F)F)n2)cc1)c1ccncc1 (centres unmarked) [Compound 4, N-(methyl(oxo)(pyridin-4-yl)-λ^6-sulfanylidene)-4-(5-(trifluoromethyl)-1,2,4-oxadiazol-3-yl)benzamide] | > 90% |
| CS(=O)(=NC(=O)c1ccc(-c2noc(C(F)(F)F)n2)cc1)c1cccc(F)c1 (centres unmarked) [Compound 5, N-((3-fluorophenyl)(methyl)(oxo)-λ^6-sulfanylidene)-4-(5-(trifluoromethyl)-1,2,4-oxadiazol-3-yl)benzamide] | > 90% |
| CS(=O)(=NC(=O)c1ccc(-c2noc(C(F)(F)F)n2)cc1)c1ccc(F)cc1 (centres unmarked) [Compound 6, N-((4-fluorophenyl)(methyl)(oxo)-λ^6-sulfanylidene)-4-(5-(trifluoromethyl)-1,2,4-oxadiazol-3-yl)benzamide] | > 90% |
| CS(=O)(=NC(=O)c1ccc(-c2noc(C(F)(F)F)n2)cc1)c1ccc(C(F)(F)F)cc1 (centres unmarked) [Compound 7, N-(methyl(oxo)(4-(trifluoromethyl)phenyl)-λ^6-sulfanylidene)-4-(5-(trifluoromethyl)-1,2,4-oxadiazol-3-yl)benzamide] | > 90% |
| CS(=O)(=NC(=O)c1ccc(-c2noc(C(F)(F)F)n2)cc1)c1ccccc1 (centres unmarked) [Compound 9, N-(methyl(oxo)(phenyl)-λ^6-sulfanylidene)-4-(5-(trifluoromethyl)-1,2,4-oxadiazol-3-yl)benzamide] | > 90% |
| COc1ccc(S(C)(=O)=NC(=O)c2ccc(-c3noc(C(F)(F)F)n3)cc2)cc1 (centres unmarked) [Compound 10, N-((4-methoxyphenyl)(methyl)(oxo)-λ^6-sulfanylidene)-4-(5-(trifluoromethyl)-1,2,4-oxadiazol-3-yl)benzamide] | > 90% |
| CS(=O)(=Nc1ccc(-c2noc(C(F)(F)F)n2)cc1)c1ccccc1F (centres unmarked) [Compound 12, (2-fluorophenyl)(methyl)((4-(5-(trifluoromethyl)-1,2,4-oxadiazol-3-yl)phenyl)imino)-λ^6-sulfanone] | > 90% |
| CS(=O)(=Nc1ccc(-c2noc(C(F)(F)F)n2)cc1)c1ccc(OC(F)(F)F)cc1 (centres unmarked) [Compound 21, methyl(4-(trifluoromethoxy)phenyl)((4-(5-(trifluoromethyl)-1,2,4-oxadiazol-3-yl)phenyl)imino)-λ^6-sulfanone] | > 90% |
| CS(=O)(=NCc1ccc(-c2noc(C(F)(F)F)n2)cc1)c1ccc(C(F)(F)F)cc1 (centres unmarked) [Compound 25, methyl((4-(5-(trifluoromethyl)-1,2,4-oxadiazol-3-yl)benzyl)imino)(4-(trifluoromethyl)phenyl)-λ^6-sulfanone] | > 90% |
| CS(=O)(=NCc1ccc(-c2noc(C(F)(F)F)n2)cc1)c1ccccc1 (centres unmarked) [Compound 26, methyl(phenyl)((4-(5-(trifluoromethyl)-1,2,4-oxadiazol-3-yl)benzyl)imino)-λ^6-sulfanone] | > 90% |
| CS(=O)(=NCc1ccc(-c2noc(C(F)(F)F)n2)cc1)c1ccc(Cl)cc1 (centres unmarked) [Compound 28, (4-chlorophenyl)(methyl)((4-(5-(trifluoromethyl)-1,2,4-oxadiazol-3-yl)benzyl)imino)-λ^6-sulfanone] | > 90% |
| Cc1ccc(S(C)(=O)=NC(=O)c2ccc(-c3noc(C(F)(F)F)n3)cc2)cc1 (centres unmarked) [Compound 30, N-(methyl(oxo)(p-tolyl)-λ^6-sulfaneylidene)-4-(5-(trifluoromethyl)-1,2,4-oxadiazol-3-yl)benzamide] | > 90% |
| CS(=O)(Cc1ccc(C#N)cc1)=NC(=O)c1ccc(-c2noc(C(F)(F)F)n2)cc1 (centres unmarked) [Compound 31, N-((4-cyanobenzyl)(methyl)(oxo)-λ^6-sulfaneylidene)-4-(5-(trifluoromethyl)-1,2,4-oxadiazol-3-yl)benzamide] | > 90% |
| CS(=O)(=NC(=O)c1ccc(-c2noc(C(F)(F)F)n2)cc1)c1c(F)cccc1F (centres unmarked) [Compound 36, N-((2,6-difluorophenyl)(methyl)(oxo)-λ^6-sulfaneylidene)-4-(5-(trifluoromethyl)-1,2,4-oxadiazol-3-yl)benzamide] | > 90% |
| CS(=O)(Cc1ccccc1F)=NC(=O)c1ccc(-c2noc(C(F)(F)F)n2)cc1 (centres unmarked) [Compound 38, N-((2-fluorobenzyl)(methyl)(oxo)-λ^6-sulfaneylidene)-4-(5-(trifluoromethyl)-1,2,4-oxadiazol-3-yl)benzamide] | > 90% |
| Cc1ccccc1CS(C)(=O)=NC(=O)c1ccc(-c2noc(C(F)(F)F)n2)cc1 (centres unmarked) [Compound 40, N-(methyl(2-methylbenzyl)(oxo)-λ^6-sulfaneylidene)-4-(5-(trifluoromethyl)-1,2,4-oxadiazol-3-yl)benzamide] | > 90% |
| CS(=O)(=NC(=O)c1ccc(-c2noc(C(F)(F)F)n2)cc1)c1ccc(C#N)cc1 (centres unmarked) [Compound 42, N-((4-cyanophenyl)(methyl)(oxo)-λ^6-sulfaneylidene)-4-(5-(trifluoromethyl)-1,2,4-oxadiazol-3-yl)benzamide] | > 90% |
| CS(=O)(Cc1ccc(C(F)(F)F)cc1)=NC(=O)c1ccc(-c2noc(C(F)(F)F)n2)cc1 (centres unmarked) [Compound 50, N-(methyl(oxo)(4-(trifluoromethyl)benzyl)-λ^6-sulfaneylidene)-4-(5-(trifluoromethyl)-1,2,4-oxadiazol-3-yl)benzamide] | > 90% |
| CS(=O)(Cc1c(Cl)cccc1Cl)=NC(=O)c1ccc(-c2noc(C(F)(F)F)n2)cc1 (centres unmarked) [Compound 51, N-((2,6-dichlorobenzyl)(methyl)(oxo)-λ^6-sulfaneylidene)-4-(5-(trifluoromethyl)-1,2,4-oxadiazol-3-yl)benzamide] | > 90% |
| Cc1csc(S(C)(=O)=NC(=O)c2ccc(-c3noc(C(F)(F)F)n3)cc2)n1 (centres unmarked) [Compound 53, N-(methyl(4-methylthiazol-2-yl)(oxo)-λ^6-sulfaneylidene)-4-(5-(trifluoromethyl)-1,2,4-oxadiazol-3-yl)benzamide] | > 90% |
| Cc1nnc(S(C)(=O)=NC(=O)c2ccc(-c3noc(C(F)(F)F)n3)cc2)s1 (centres unmarked) [Compound 54, N-(methyl(5-methyl-1,3,4-thiadiazol-2-yl)(oxo)-λ^6-sulfaneylidene)-4-(5-(trifluoromethyl)-1,2,4-oxadiazol-3-yl)benzamide] | > 90% |
| CS(=O)(=NC(=O)c1ccc(-c2noc(C(F)(F)F)n2)cc1)c1ccc(F)c(F)c1 (centres unmarked) [Compound 57, N-((3,4-difluorophenyl)(methyl)(oxo)-λ^6-sulfaneylidene)-4-(5-(trifluoromethyl)-1,2,4-oxadiazol-3-yl)benzamide] | > 90% |
| O=C(N=S1(=O)CCOCC1)c1ccc(-c2noc(C(F)(F)F)n2)cc1 [Compound 58, N-(4-oxido-1,4λ^6-oxathian-4-ylidene)-4-(5-(trifluoromethyl)-1,2,4-oxadiazol-3-yl)benzamide] | > 90% |
| CS(=O)(Cc1c(F)cccc1F)=Nc1ccc(-c2noc(C(F)(F)F)n2)cc1 (centres unmarked) [Compound 85, (2,6-difluorobenzyl)(methyl)((4-(5-(trifluoromethyl)-1,2,4-oxadiazol-3-yl)phenyl)imino)-λ^6-sulfanone] | > 90% |
| CS(=O)(Cc1ccc(F)cc1)=Nc1ccc(-c2noc(C(F)(F)F)n2)cc1 (centres unmarked) [Compound 89, (4-fluorobenzyl)(methyl)((4-(5-(trifluoromethyl)-1,2,4-oxadiazol-3-yl)phenyl)imino)-λ^6-sulfanone] | > 90% |
| CS(=O)(Cc1c(Cl)cccc1Cl)=Nc1ccc(-c2noc(C(F)(F)F)n2)cc1 (centres unmarked) [Compound 91, (2,6-dichlorobenzyl)(methyl)((4-(5-(trifluoromethyl)-1,2,4-oxadiazol-3-yl)phenyl)imino)-λ^6-sulfanone] | > 90% |
| CS(=O)(Cc1ccc(Br)cc1)=Nc1ccc(-c2noc(C(F)(F)F)n2)cc1 (centres unmarked) [Compound 92, (4-bromobenzyl)(methyl)((4-(5-(trifluoromethyl)-1,2,4-oxadiazol-3-yl)phenyl)imino)-λ^6-sulfanone] | > 90% |
| CS(=O)(=Nc1ccc(-c2noc(C(F)(F)F)n2)nc1)c1ccccn1 (centres unmarked) [Compound 110, methyl(pyridin-2-yl)((6-(5-(trifluoromethyl)-1,2,4-oxadiazol-3-yl)pyridin-3-yl)imino)-λ^6-sulfanone] | > 90% |

Each compound was assayed on Pyricularia oryzae (assay: microbe, parasite or virus in culture). Conditions: 168 h, read-out: control compared to the untreated check.
Format: cell-based

| SMILES | inhibition of growth at 300 ppm |
| --- | --- |
| CS(=O)(=NCc1ccc(-c2noc(C(F)(F)F)n2)cc1)c1ccccc1F (centres unmarked) [Compound 29, (2-fluorophenyl)(methyl)((4-(5-(trifluoromethyl)-1,2,4-oxadiazol-3-yl)benzyl)imino)-λ^6-sulfanone] | > 70% |
| CS(=O)(=Nc1ccc(-c2noc(C(F)(F)F)n2)cc1)c1ccc(F)c(F)c1 (centres unmarked) [Compound 97, (3,4-difluorophenyl)(methyl)((4-(5-(trifluoromethyl)-1,2,4-oxadiazol-3-yl)phenyl)imino)-λ^6-sulfanone] | > 70% |
